In ChEMBL document CHEMBL5634128, “Development of chalcone-like derivatives and their biological and mechanistic investigations as novel influenza nuclear export inhibitors” (Eur J Med Chem, 2023):
Values joined by “and” are separate entries in the source; they are usually repeats but may differ in a detail not shown here. Equal entries are not always repeated. Active and inactive are the calls of the source. The rule behind the calls is not given here.

Assays:
Influenza A virus [1] = test: Anti-influenza activity against Influenza A virus A/Brisbane/10/2007 infected in chicken embryo fibroblast assessed as reduction in viral growth; type: functional, organism-based; conditions: A/Brisbane/10/2007, Fibroblast
Influenza A virus [2] = test: Anti-influenza activity against Influenza A virus H5N1 infected in chicken embryo fibroblast assessed as reduction in viral growth; type: functional, organism-based
Influenza A virus [3] = test: Anti-influenza activity against Influenza A virus A/PR/8/34 infected in chicken embryo fibroblast assessed as reduction in viral growth; type: functional, organism-based; conditions: A/PR/8/34, Fibroblast
Influenza A virus [4] = test: Anti-influenza activity against Influenza A virus H5N8 infected in chicken embryo fibroblast assessed as reduction in viral growth; type: functional, organism-based
Influenza A virus [5] = test: Anti-influenza activity against Influenza A virus B/Victoria infected in chicken embryo fibroblast assessed as reduction in viral growth; type: functional, organism-based
Influenza A virus [6] = test: Anti-influenza activity against Influenza A virus B/Yamagata infected in chicken embryo fibroblast assessed as reduction in viral growth; type: functional, organism-based
Influenza A virus [7] = test: Anti-influenza activity against Influenza A virus pdm09 infected in chicken embryo fibroblast assessed as reduction in viral growth; type: functional, organism-based
[8] = Cytotoxicity against chicken embryo fibroblast cells assessed as reduction in cell growth by CCK-8; type: toxicity, cell-based, Gallus gallus
Fibroblast = test: (§1) Cytotoxicity against chicken embryo fibroblast cells assessed as reduction in cell growth at 50 uM by CCK-8 assay relative to control; type: toxicity, cell-based, Gallus gallus; parameters: Activity: scale not given: the % may be the effect or the level left; conditions: fibroblast, 50 µM
[9] = as §1; type: toxicity, cell-based, Gallus gallus; parameters: Activity: scale not given: the % may be the effect or the level left; conditions: chicken embryo fibroblast cells, read-out: Activity
Influenza A virus [10] = test: Anti-influenza activity against Influenza A virus A/Goose/Guangdong/SH7/2013 (H5N1) infected in chicken embryo fibroblast assessed as inhibition of virus-induced cytopathic effect; type: functional
Influenza A virus [11] = test: Anti-influenza activity against Influenza A virus A/Goose/Guangdong/SH7/2013 (H5N1) infected in chicken embryo fibroblast at MOI 1 assessed as decrease in ratio of cytoplasmic to nuclear NP level at 10 uM measured after 10 hr post infection by Western blot analysis; type: functional, organism-based
[12] = Binding affinity to influenza A virus NS2 assessed as dissociation constant by SPR analysis
Influenza A virus [13] = test: Anti-influenza activity against Influenza A virus A/Goose/Guangdong/SH7/2013 (H5N1) infected in chicken embryo fibroblast at MOI 1 assessed as reduction in NP expression in cytoplasm at 10 uM measured after 10 hr post infection by Western blot analysis; type: functional, organism-based
Influenza A virus [14] = test: Anti-influenza activity against Influenza A virus A/Goose/Guangdong/SH7/2013 (H5N1) infected in chicken embryo fibroblast at MOI 1 assessed as distribution of NP in nucleus at 10 uM measured after 10 hr post infection by DAPI staining based assay; type: functional, organism-based
Influenza A virus [15] = test: Anti-influenza activity against Influenza A virus A/Goose/Guangdong/SH7/2013 (H5N1) infected in chicken embryo fibroblast at MOI 1 assessed as reduction in NP expression in nucleus at 10 uM measured after 10 hr post infection by Western blot analysis; type: functional, organism-based
[16] = biological target: Exportin-1 (Homo sapiens) (UniProt O14980); test: Inhibition of CRM1-mediated nuclear export in human A549 cells assessed as distribution of GFP-tagged AID in cytoplasm at 20 uM administered for 12 hrs and measured after 24 hrs by fluorescence microscopy analysis; type: cell-based
Nucleoprotein = Nucleoprotein (Influenza A virus (strain A/Wilson-Smith/1933 H1N1), UniProt P15682); test: Binding affinity to influenza A virus Nucleoprotein assessed as dissociation constant by SPR analysis
[17] = biological target: Exportin-1 (Homo sapiens) (UniProt O14980); test: Inhibition of CRM1-mediated nuclear export in human A549 cells assessed as distribution of GFP-tagged AID in nucleus at 20 uM administered for 12 hrs and measured after 24 hrs by fluorescence microscopy analysis; type: cell-based; conditions: time 36.0 hrs
[18] = biological target: Single-stranded DNA cytosine deaminase (Homo sapiens) (UniProt Q9GZX7); test: Induction of GFP-tagged AID degradation in human A549 cells at 20 uM; type: cell-based
[19] = Binding affinity to influenza A virus M1 assessed as dissociation constant by SPR analysis

Sequence of Exportin-1 (Homo sapiens) (O14980 whole entry): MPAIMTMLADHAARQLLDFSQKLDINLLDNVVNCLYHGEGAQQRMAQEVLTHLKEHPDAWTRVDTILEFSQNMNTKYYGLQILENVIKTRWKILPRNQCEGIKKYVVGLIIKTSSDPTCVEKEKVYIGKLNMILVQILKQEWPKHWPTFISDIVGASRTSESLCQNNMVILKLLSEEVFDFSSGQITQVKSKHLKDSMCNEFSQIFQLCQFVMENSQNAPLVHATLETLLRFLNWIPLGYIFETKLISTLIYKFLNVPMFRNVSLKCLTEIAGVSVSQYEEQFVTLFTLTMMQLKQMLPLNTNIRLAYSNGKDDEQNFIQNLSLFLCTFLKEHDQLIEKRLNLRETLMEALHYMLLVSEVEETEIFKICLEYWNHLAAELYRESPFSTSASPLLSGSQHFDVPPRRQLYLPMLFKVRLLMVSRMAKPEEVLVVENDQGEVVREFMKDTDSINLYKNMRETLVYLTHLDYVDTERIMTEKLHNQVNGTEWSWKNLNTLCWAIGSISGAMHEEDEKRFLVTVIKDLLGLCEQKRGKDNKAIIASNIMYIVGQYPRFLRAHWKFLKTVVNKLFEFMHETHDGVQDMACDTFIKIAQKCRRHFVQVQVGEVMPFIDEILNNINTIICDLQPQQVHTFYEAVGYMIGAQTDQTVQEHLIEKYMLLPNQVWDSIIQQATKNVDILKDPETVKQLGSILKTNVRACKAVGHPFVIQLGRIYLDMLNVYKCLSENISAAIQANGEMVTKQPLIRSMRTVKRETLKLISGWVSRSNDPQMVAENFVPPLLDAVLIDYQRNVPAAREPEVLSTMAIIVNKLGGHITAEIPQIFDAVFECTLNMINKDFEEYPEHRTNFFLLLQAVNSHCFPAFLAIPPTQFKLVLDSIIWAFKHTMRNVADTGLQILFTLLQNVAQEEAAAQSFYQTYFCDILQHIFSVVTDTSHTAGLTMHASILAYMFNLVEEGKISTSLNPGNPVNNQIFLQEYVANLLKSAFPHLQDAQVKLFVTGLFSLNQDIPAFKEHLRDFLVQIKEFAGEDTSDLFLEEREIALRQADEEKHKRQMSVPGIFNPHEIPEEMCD
Sequence of Nucleoprotein (P15682 whole entry): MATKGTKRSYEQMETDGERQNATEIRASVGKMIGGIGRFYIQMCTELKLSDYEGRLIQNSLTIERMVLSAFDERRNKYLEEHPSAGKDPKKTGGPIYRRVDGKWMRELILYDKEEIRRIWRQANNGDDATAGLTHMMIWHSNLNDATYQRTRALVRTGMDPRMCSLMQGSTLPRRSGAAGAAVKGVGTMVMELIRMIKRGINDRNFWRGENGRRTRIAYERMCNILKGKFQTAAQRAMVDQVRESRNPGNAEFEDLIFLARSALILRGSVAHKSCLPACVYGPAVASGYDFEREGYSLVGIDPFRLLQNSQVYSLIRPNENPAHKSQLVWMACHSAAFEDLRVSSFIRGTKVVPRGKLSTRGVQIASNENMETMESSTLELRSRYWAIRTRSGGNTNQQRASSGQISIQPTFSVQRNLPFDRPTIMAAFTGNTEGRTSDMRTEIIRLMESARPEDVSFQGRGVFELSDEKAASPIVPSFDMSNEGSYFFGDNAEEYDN
Sequence of Single-stranded DNA cytosine deaminase (Homo sapiens) (Q9GZX7 whole entry): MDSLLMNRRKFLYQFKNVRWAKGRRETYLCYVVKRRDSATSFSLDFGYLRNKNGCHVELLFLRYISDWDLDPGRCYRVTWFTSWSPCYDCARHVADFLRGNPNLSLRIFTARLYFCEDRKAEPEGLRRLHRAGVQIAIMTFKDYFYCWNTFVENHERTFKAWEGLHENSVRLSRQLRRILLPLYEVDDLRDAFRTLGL

SMILES | EC50 (Influenza A virus [1]) [µM] | EC50 (Influenza A virus [2]) [µM] | EC50 (Influenza A virus [3]) [µM] | EC50 (Influenza A virus [4]) [µM] | EC50 (Influenza A virus [5]) [µM] | EC50 (Influenza A virus [6]) [µM] | EC50 (Influenza A virus [7]) [µM] | CC50 [8] [µM] | Activity (Fibroblast) [%] | percent cell viability relative to control at 50 µM [9] [%] | inhibition (INH) (Influenza A virus [10]) | other results
CCC(CC)O[C@@H]1C=C(C(=O)O)C[C@H](N)[C@H]1NC(C)=O [OSELTAMIVIR CARBOXYLATE] | 1.08 | 5.7 | 3.08 | 6.49 | 2.43 | 0.98 | > 100 | > 100 | 105.08 | 100 | 98.5% and 97.3% | –
COc1cccc(OC)c1/C=C/C(=O)/C=C/c1ccc(N2CCOCC2)cc1 | 3.69 | 14.9 | 7.31 | 9.6 | 3.13 | 4.82 | 4.56 | > 100 | – | 102 | 96.62% | Activity (Influenza A virus [11]): Active; Kd [12]: Not Active; Activity (Influenza A virus [13]): Active; Activity (Influenza A virus [14]): Active; Activity (Influenza A virus [15]): Active; inhibition [16]: inactive; Kd (Nucleoprotein): 0.239 µM; inhibition [17]: inactive; Activity [18]: Active; Kd [19]: Not Active
COc1cccc(OC)c1/C=C/C(=O)/C=C/c1ccc(-c2ccncc2)cc1 | – | – | – | – | – | – | – | – | 153.71 | – | 26.05% | –
